Results taken from patent EP1034273B1, “HISTAMINE AND SEROTONIN BINDING MOLECULES” (Evolutec Limited, priority 1997, dated 1999).
pIC50, pKd: −log10 of the molar value. Like-named read-outs stand apart in the source and are kept apart here.

What was measured:
[1] = target: recombinant D.RET6 (SEQ ID 4), Dermacentor reticulatus histamine-binding protein (Dermacentor reticulatus, UniProt Q8WSK7); assay: biochemical
Protocol: (§1) The recombinant D.RET6 was diluted with 1.5% γ-globulin (Sigma) and used in one set of experiments. Fifty microlitres of the protein solution were incubated with 50 µl of 1:2500 dilution of [2,5-^3H] histamine diHCl (1µCi/µl) solution (Amersham) at room temperature for at least 3 hours with or without increasing concentrations of unlabelled histamine. All the assays were carried out in a total volume of 200 µl. The incubations were terminated by adding 125 µl of PEG 8000 (36% w/v in PBS) and centrifuged in a microfuge at maximum speed for 12 minutes to collect the bound protein. The tubes were spun once more to remove all supernatant without disturbing the pellets. Subsequently, pellets were redissolved in PBS. Three millilitres of liquid scintillation cocktail (Beckman) were added and the radioactivity measured using a liquid scintillation counter (Wallac, 1217 Rackbeta).
To study the effect of serotonin on histamine binding activity, 10 µl of PBS (as a control experiment) or 10 µl serotonin (50 µM or 500 µM) were added to each 200 µl binding assay.
For data analysis, the ligand affinity constant was estimated from Scatchard plots as previously described by Hulme, 1992, Receptor-Ligand Interactions, IRL Press, Oxford). The nonlinear regression was used to fit the data (Motulsky, 1987, FASEB J, 1: 365-374) and two asymtotic straight lines were made as described elsewhere (Feldman, 1972, Analytical Biochem 48: 317).

[2] = target: Av-HBP (SEQ. ID. 6), semi-purified recombinant protein, Amblyomma variegatum; details: read-out: equilibrium dissociation constant (Kd) for histamine; results not shown
recombinant D.RET6 = target: T1, recombinant D.RET6 (Dermacentor reticulatus, UniProt Q8WSK7); assay: Competitive binding assay: unlabelled ligands displacing radioactive histamine from recombinant D.RET6; details: graphically derived from competitive binding curve (Figure 15), read-out: IC50 of the unlabelled ligands in displacing the radioactive histamine from the binding site by 50%
T1 sequence (Q8WSK7 18-209): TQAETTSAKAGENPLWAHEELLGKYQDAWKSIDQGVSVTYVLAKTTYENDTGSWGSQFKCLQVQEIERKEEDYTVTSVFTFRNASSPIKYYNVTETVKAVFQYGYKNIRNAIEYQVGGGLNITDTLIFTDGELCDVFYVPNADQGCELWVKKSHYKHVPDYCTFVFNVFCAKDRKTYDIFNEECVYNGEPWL
Protocol: as §1
In a second set of experiments, a competitive binding assay was used to compare three unlabelled competitor ligands (histamine, 1-methylhistamine and 3-methylhistamine).

NCCc1c[nH]cn1 [histamine]
pKd ([1]; Kd, first (higher affinity) histamine binding site, final concentration of 2.38µM serotonin): 8.96
pKd ([1]; Kd, first (higher affinity) histamine binding site, no serotonin, approximate, from asymptotic lines of Scatchard plot): ~7.22
pKd ([1]; Kd, first (higher affinity) histamine binding site, with 23.8µM serotonin): 8.89
increase of binding affinity of D.RET6 for histamine ([1]; in the presence of serotonin versus no serotonin): sixty-fold
pKd ([1]; read-out: Kd, second (lower affinity) histamine binding site, final concentration of 2.38µM serotonin): 6.00
pKd ([1]; read-out: Kd, second (lower affinity) histamine binding site, no serotonin, approximate, from asymptotic lines of Scatchard plot): ~5.70
pKd ([1]; read-out: Kd, second (lower affinity) histamine binding site, with 23.8µM serotonin): 6.00
pKd [2]: ~8.14
pIC50 (recombinant D.RET6): 6.88
